Experimental data as given in ChEMBL document CHEMBL1201862, “PubChem BioAssay data set” (2004).
Each block holds one compound with its values, some of them ahead of it. Activity calls are given as the source filed them.

Key:
[1] = molecular target: T1, Ubiquitin-conjugating enzyme E2 N (Homo sapiens, UniProt P61088); format: functional;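 further: Dose-response confirmation in a TR-FRET assay detecting UBC13-driven polyubiquitin chain formation, inhibition measured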
T1 sequence (P61088 whole entry): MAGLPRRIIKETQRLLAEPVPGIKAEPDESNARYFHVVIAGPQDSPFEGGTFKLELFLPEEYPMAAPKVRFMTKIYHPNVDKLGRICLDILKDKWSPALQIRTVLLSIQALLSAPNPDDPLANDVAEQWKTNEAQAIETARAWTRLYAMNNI

[2] = system: P388/ADR; assay: cells; format: functional; details: Mus musculus
[3] = system: SN12K1; assay: cells; format: functional; details: Homo sapiens
[4] = system: P388; assay: cells; format: functional; details: Mus musculus
[5] = molecular target: T2, Calpain-2 catalytic subunit (Sus scrofa, UniProt P43367); assay: m-calpain protease blockers, concentration series – biochemical, fluorogenic peptide substrate, dose response (AID 1420); format: functional
T2 sequence (P43367 whole entry): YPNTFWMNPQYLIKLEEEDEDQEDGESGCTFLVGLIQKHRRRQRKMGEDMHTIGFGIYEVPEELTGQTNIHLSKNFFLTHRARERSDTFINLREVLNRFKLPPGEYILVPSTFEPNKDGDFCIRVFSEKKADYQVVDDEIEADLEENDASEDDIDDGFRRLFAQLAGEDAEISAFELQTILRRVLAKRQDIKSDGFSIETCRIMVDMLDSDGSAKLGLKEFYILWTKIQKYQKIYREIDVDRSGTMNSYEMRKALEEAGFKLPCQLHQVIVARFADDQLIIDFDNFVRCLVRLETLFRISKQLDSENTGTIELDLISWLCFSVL

[6] = cells; format: functional, cell-based
[7] = cells; format: functional, cell-based; remark: listed apart in the source
[8] = molecular target: Induced myeloid leukemia cell differentiation protein Mcl-1 (Homo sapiens, UniProt Q07820); format: functional
Induced myeloid leukemia cell differentiation protein Mcl-1, sequence (Q07820 whole entry): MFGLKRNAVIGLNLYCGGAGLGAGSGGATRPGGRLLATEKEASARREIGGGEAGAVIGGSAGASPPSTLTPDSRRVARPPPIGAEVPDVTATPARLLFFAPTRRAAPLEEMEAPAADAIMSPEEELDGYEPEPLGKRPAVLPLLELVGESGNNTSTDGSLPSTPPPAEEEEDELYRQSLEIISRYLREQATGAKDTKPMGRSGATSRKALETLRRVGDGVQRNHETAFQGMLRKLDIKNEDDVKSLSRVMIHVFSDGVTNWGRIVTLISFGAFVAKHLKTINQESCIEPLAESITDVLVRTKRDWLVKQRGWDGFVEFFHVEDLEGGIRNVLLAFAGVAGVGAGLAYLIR

[9] = molecular target: Cytochrome P450 2C19 (Homo sapiens, UniProt P33261); assay: Cytochrome panel assay with activity outcomes. Panel member name: p450-cyp2c19 Compounds with AC50 equal or less than 10 uM are considered active; format: functional; details: read-out: AC50
Cytochrome P450 2C19, sequence (P33261 whole entry): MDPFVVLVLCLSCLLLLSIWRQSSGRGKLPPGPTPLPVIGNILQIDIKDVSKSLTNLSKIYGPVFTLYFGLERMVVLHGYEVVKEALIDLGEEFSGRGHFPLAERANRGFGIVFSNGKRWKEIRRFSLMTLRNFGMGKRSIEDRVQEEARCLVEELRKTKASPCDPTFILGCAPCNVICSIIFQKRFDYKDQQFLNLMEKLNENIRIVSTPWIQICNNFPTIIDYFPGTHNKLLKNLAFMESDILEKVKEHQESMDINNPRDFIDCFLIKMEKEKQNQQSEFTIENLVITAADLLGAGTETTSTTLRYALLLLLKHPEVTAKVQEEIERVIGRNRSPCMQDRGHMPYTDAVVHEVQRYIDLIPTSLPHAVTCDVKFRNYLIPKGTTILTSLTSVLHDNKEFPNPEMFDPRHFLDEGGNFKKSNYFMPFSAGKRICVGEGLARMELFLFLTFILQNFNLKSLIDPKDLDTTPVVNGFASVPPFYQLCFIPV

[10] = molecular target: T3, Rac GTPase-activating protein 1 (Homo sapiens, UniProt Q9H0H5); assay: blockers of MgcRacGAP-driven Rac1 GTP hydrolysis – biochemical, ADP Hunter fluorescence, primary and confirmatory, confirmation (AID 624330); format: functional
T3 sequence (Q9H0H5 whole entry): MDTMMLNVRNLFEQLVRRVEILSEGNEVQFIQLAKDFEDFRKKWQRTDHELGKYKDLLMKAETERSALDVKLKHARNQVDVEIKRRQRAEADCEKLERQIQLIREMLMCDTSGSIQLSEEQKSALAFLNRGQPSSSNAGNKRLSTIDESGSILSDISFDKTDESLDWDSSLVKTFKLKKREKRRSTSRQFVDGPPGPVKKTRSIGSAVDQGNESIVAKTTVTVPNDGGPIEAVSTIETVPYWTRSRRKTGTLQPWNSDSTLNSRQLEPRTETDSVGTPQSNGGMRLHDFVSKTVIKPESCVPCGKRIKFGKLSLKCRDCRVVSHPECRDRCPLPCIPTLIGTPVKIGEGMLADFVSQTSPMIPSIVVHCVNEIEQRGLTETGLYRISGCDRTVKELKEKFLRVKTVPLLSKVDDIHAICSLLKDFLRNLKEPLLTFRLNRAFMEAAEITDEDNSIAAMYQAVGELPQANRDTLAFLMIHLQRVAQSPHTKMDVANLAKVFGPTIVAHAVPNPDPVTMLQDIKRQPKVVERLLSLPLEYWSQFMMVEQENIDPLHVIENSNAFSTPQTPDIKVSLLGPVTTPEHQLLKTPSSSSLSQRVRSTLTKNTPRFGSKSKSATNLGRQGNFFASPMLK

[11] = NIH-3T3 fibroblast cytotoxicity, dose response, cytotoxicity control, cell-based, fluorescence, Alamar Blue, secondary assay (AID 2327); format: functional;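 further: NIH-3T3 mouse fibroblasts cultured with fluconazole at 8 µg/mL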
[12] = fluconazole-exposed Candida albicans growth modulators – fluorescence, retest, confirmation (AID 2467); format: functional, cell-based
[13] = molecular target: T4, Heat shock factor protein 1 (Mus musculus, UniProt P38532); assay: enhancement of HSF1-driven luciferase signal – cell-based, NIH3T3, luminescence, dose retest, confirmation (AID 435004); format: functional;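 further: stress induced by proteasome inhibitor MG132 added 30 min after compound; luciferase reporter driven by HSF1 response element in NIH3T3 cells; actives raise luminescence as potentiators of the MG132 stress response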
T4 sequence (P38532 whole entry): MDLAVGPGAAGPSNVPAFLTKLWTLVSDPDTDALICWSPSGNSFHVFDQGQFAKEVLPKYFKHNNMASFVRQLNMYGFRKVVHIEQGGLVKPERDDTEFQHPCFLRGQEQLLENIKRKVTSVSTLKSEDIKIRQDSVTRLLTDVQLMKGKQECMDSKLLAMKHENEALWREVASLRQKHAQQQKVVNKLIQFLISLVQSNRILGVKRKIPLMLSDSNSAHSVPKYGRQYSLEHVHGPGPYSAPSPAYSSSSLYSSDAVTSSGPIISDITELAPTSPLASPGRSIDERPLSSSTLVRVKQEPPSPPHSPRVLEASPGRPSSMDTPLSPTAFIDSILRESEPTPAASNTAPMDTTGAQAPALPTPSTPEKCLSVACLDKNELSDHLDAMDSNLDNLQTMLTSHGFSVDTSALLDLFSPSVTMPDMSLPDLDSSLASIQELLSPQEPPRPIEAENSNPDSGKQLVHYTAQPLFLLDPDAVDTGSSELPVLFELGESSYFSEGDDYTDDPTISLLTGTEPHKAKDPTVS

[14] = molecular target: Luciferin 4-monooxygenase (Photinus pyralis, UniProt P08659); assay: inhibition of purified Photinus pyralis luciferase – biochemical, luminescence, dose response (AID 1891)
Luciferin 4-monooxygenase, sequence (P08659 whole entry): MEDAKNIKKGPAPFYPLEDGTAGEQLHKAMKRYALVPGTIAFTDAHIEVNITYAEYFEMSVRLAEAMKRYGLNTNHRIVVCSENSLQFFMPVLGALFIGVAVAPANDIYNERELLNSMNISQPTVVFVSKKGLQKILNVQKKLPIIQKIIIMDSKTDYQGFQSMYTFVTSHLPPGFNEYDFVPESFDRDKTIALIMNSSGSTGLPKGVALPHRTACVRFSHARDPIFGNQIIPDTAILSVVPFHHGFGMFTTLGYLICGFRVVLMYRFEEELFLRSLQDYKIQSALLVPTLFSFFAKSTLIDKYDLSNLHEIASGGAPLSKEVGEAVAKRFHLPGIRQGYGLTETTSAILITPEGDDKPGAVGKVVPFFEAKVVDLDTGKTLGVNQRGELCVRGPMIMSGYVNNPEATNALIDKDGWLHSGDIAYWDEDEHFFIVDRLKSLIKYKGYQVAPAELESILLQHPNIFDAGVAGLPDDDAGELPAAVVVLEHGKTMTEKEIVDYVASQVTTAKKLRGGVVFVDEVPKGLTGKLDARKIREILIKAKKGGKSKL

[15] = Luminescence Cell-Based Dose Confirmation HTS to Identify Inhibitors of Platelet Dense Granule Release. [Related pubchem assays: 1663 (Primary HTS), 1678 (Summary of Project)]; format: functional
[16] = system: H9c2; assay: cells; format: functional, cell-based; details: Rattus norvegicus, H9c2, Myocardium;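 further: confirmatory concentration-response retest of ultra-high-throughput screening hits for modulation of myocardial damage; cell death induced by hydrogen peroxide oxidative stress; compound pretreatment for 60 min then peroxide exposure for 2 h; potency is for protecting the cells against peroxide damage rather than for killing them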

Compound: CC1=C2C3OC(=O)C(C)C3CCC2(C)C=C/C1=N\c1ccccc1 (stereo unspecified)
GI50 [2]: > 100 µM (inactive)
GI50 [3]: > 100 µM (inactive)
GI50 [4]: > 100 µM (inactive)

Compound: CCCCC(=O)N1CCN(c2nc3ccc(F)cc3s2)CC1
EC50 [6]: > 350 µM (not active)
EC50 [7]: 4.69 µM (active)

Compound: CC(C)C[C@@H]1CN=C(N)N1C[C@@H]1CCCN1C[C@H](C)N1C[C@@H](Cc2ccccc2)N(CCCC2CCCC2)C1=N
IC50 [1]: > 20 µM (inactive)

Compound: Cc1cc(C(=O)NCCN(C)C)c2nc3ccccc3cc2c1
GI50 [2]: 0.341 µM (active)
GI50 [3]: 0.519 µM (active)
GI50 [4]: 0.0418 µM (active)

Compound: c1ccc(-c2nnc3sc(-c4cc5ccccc5o4)nn23)cc1
EC50 [6]: > 350 µM (not active)
EC50 [7]: > 350 µM (not active)

Compound: C/C(=N\NC(=O)c1cccc(N/N=C(\C)c2cc(O)ccc2O)c1)c1cc(O)ccc1O
EC50 [11]: 10.8 µM (active)
EC50 [12]: > 38 µM (not active)
IC50 [8]: 3.43 µM (active)
EC50 [13]: > 260 µM (inactive)
IC50 [10]: 67.8 µM (active)

Compound: O=c1cc(COc2ncnc3c(Cl)cc(Cl)cc23)nc2sccn12
EC50 [14]: > 112 µM (not active)
EC50 [15]: > 112 µM (not active)
IC50 [16]: > 79 µM (inactive)

Compound: O=[N+]([O-])c1cccc(-c2nc3ccccc3s/c2=N/O)c1
IC50 [5]: 22 µM (not active)

Compound: Cc1ccc(C(=O)NC(=S)NCc2cccnc2)c(C)c1
IC50 [5]: > 50 µM (not active)

Compound: Cc1nc(=O)n2c(c1C(=O)Nc1ccc(Cl)cc1)NCC2
GI50 [4]: > 31.6 µM (inactive)

The next lines start with the values.

IC50 [1]: > 20 µM (inactive)
Compound: CCOc1ccc(NC(=O)CCCOc2cc(=O)n(C)c3ccccc23)cc1

IC50 [5]: 4.87 µM (not active)
Compound: Cc1ccc(OCc2nnc(SCC(=O)c3cccc([N+](=O)[O-])c3)n2C)cc1

IC50 [1]: > 20 µM (inactive)
Compound: CCOC(=O)CSc1nc2ccccc2c(=O)n1NC(=O)c1ccccc1

IC50 [8]: 1.89 µM (not active)
AC50 [9]: 25.1 µM (inconclusive)
IC50 [10]: 49.2 µM (active)
Compound: CN(C)c1ccc(NC(=O)c2cccc(N3C(=O)C4C5C=CC(C5)C4C3=O)c2)cc1 (stereo unspecified)

IC50 [1]: > 20 µM (inactive)
Compound: Cc1ccc(NC(=O)C[S+]([O-])CC(=O)NCCCc2ccccc2)cc1Cl (stereo unspecified)

IC50 [5]: 3.23 µM (not active)
Compound: COc1ccc(-n2ncc(S(=O)(=O)c3ccccc3)c2-c2ccc(Cl)cc2)cc1

IC50 [5]: > 50 µM (not active)
Compound: Cc1ccc(N2C(=O)N(CC(=O)Nc3cc(C)cc(C)c3)C(=O)C2C)cc1 (stereo unspecified)
